According to patent publication US20120046273A1, “COMPOUNDS AND COMPOSITIONS FOR COGNITION-ENHANCEMENT, METHODS OF MAKING, AND METHODS OF TREATING” (MITHRIDION, INC., priority 2009, published 2012):
Numbering of substitutions follows the chain as printed. Entries after “also recorded” stand apart in the source; their conditions may differ. Where a name gives a salt, the structure may show the parent alone. Read-outs that look alike come from different tables or passages of the source. Blank lines part the entries; values can stand above or below the compound they belong to.

Tests used:
human FMO1 Supersomes = target: T1, human FMO1 Supersomes (Homo sapiens, UniProt Q01740); assay: Metabolism by flavin monoxygenase 1 (FMO1) Supersomes; format: in vitro ADME
T1 construct: purchased BD Biosciences 456241
T1 sequence (Q01740 1-532): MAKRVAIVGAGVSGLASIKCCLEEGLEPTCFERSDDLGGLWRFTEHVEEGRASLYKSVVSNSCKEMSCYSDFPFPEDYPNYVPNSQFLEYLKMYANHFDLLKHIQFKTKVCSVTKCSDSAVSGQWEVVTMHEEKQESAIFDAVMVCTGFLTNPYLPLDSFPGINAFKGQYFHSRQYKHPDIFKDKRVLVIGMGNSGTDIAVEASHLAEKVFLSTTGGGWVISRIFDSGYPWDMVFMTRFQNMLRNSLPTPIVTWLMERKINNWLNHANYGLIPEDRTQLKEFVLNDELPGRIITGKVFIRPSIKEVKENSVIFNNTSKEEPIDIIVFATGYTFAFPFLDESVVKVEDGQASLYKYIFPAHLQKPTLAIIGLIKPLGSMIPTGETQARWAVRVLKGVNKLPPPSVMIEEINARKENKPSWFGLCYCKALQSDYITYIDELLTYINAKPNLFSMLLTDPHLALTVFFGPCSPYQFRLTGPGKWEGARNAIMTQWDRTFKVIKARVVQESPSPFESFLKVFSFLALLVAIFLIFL
Method: […] Aliquots were removed every 10 minutes, and 1% formic acid was added to halt the reaction. Samples were centrifuged, filtered through 0.2 micron spinfilter and the amount of each compound in the supernatants was quantitated using LC/MS/MS.

[1] = target: T2, human muscarinic M3 receptors (Homo sapiens, UniProt P20309); assay: Inositol phosphate production in huM3/A9L cells (IPOne TR-FRET); format: cell-based; settings: for huM3/A9L ED50 relative to CCh: potency relative to carbachol
T2 construct: expressed in transfected cells; host or cells: A9L cells (gift from Professor W Messer)
T2 sequence (P20309 whole entry): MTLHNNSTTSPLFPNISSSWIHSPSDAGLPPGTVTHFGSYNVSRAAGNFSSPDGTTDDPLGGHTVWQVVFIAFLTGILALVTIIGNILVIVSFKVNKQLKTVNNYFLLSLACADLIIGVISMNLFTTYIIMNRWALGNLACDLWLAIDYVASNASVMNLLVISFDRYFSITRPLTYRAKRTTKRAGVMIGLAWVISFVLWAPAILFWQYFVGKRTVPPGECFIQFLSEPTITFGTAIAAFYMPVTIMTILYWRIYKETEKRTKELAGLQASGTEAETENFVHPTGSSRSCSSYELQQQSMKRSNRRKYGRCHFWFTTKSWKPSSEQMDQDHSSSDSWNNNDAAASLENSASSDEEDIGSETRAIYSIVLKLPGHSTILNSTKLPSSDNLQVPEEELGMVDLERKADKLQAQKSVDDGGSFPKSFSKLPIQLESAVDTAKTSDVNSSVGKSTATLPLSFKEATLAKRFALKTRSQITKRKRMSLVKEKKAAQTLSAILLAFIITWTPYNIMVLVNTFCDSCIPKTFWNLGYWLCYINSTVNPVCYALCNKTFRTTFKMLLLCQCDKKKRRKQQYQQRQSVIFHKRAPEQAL
Method: (§1) Muscarinic M1 and M3 agonist activity was evaluated by measuring the stimulation of inositol phosphate (IP) production in the presence of lithium chloride from A9L cells transfected with expression plasmids containing human muscarinic M1 and M3 receptors, respectively. The cell lines were a gift from Professor W Messer, and the methods were as described in Tejada F R et al. J. Med. Chem. 2006; 49: 7518-31 except that the assay was scaled down to run in 384 well plates, and IP was measured in the cell lysates using the non-isotopic IPOne TR-FRET assay (CIS-BIO, Inc).
(§2) Cells were grown to 90% confluence in 384 well hi-base plates (Greiner Bio-One), compounds were added at suitable concentrations in growth medium containing 10 mM LiCL, buffered with an extra 10 mM HEPES (pH7.4), and incubated for 60 minutes at 37° C. Cells were lysed and assayed for IP following the manufacturer's instructions.
(§3) The value for a full agonist is 100%, while partial agonists give values below 100%.

[2] = tested on: pooled male human liver microsomes; assay: Metabolism by human liver microsomes; format: in vitro ADME; settings: 6 hours incubation
Method: (§4) Compounds were incubated with pooled male human liver microsomes (BD Biosciences, #452172) and an NADP-regenerating system in a phosphate buffer (pH 7.4) for a total of 6 hours. Aliquots were removed every 2 hours, and 1% formic acid was added to halt the reaction. Samples were centrifuged, filtered through 0.2 micron spinfilter and the amount of each compound in the supernatants was quantitated using LC/MS/MS.

[3] = target: T3, human muscarinic M1 receptors (Homo sapiens, UniProt P11229); assay: Inositol phosphate production in huM1/A9L cells (IPOne TR-FRET); format: cell-based; settings: for huM1/A9L ED50 relative to CCh: potency relative to carbachol
T3 construct: expressed in transfected cells; host or cells: A9L cells (gift from Professor W Messer)
T3 sequence (P11229 1-460): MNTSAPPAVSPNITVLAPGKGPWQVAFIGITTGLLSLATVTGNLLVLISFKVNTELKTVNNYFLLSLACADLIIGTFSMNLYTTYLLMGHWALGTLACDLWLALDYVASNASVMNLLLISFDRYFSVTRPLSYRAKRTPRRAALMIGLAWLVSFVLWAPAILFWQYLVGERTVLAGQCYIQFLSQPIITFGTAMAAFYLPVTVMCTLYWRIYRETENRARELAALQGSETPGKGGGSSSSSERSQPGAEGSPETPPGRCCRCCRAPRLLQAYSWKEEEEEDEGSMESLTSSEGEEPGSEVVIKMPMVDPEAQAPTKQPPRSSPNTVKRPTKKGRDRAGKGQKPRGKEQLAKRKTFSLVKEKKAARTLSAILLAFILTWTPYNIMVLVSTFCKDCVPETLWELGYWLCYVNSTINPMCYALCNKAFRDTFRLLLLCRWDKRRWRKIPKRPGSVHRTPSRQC
Method: as §1, §2, §3

[4] = tested on: pooled male Sprague-Dawley rat liver microsomes; assay: Metabolism by rat liver microsomes; format: in vitro ADME; settings: 6 hours incubation
Method: as §4, with “Sprague-Dawley rat” for “human”, “#452501)” for “#452172)”

[5] = tested on: hippocampal inositol phosphate signaling pathway; assay: In vivo tissue inositol phosphate signaling pathway activation, hippocampus; parameters: species or system rat; settings: 1 mg/kg of 82; NMS 0.1 mg/kg
Method: (§5) Experimental compounds or drug substances were administered using standard techniques to Long Evans Hooded rats weighing 225 to 350 grams, and which had been pretreated with a subcutaneous injection of lithium chloride at a suitable dose between 3 and 10 mmoles per kg. At suitable times the animals were briefly anesthetized using 5% isoflurane and euthanized by decapitation. The brains and submaxillary salivary glands were rapidly dissected out, and the hippocampuses were dissected from the brains. The dissected tissues were homogenized in a suitable volume of ice-cold phosphate-buffered saline containing 10 mM lithium chloride, pH7.4, using a tissue homogenizer, and used immediately or frozen in aliquots at −80degC. for future use. The concentration of inositol-1-phosphate was determined in the homogenates using the IPOne TR-FRET assay (CisBio cat no 621PAPEB), following the manufacturer's instruction

anesthetized normal rats = assay: In vivo measurement of salivation; parameters: species or system rat
Method: Suitable doses of test compounds or drug substances were administered using standard techniques to Long Evans Hooded rats weighing 225 to 350 grams, or CD-1 mice weighing 30 to 50 grams, which had been anesthetized using 2-3.5%% of isoflurane in oxygen. The animals were placed slightly head-down on an inclined, heated ramp. Rectal temperature was monitored using a thermocouple and the temperature of the heating pad was adjusted manually to maintain normal body temperature. Saliva was collected from the mouth by absorption onto pre-weighed slips of filter paper. The filter paper was changed periodically and the amount of saliva was measured by weighing the filter paper slips

[6] = tested on: salivary gland inositol phosphate signaling pathway; assay: In vivo tissue inositol phosphate signaling pathway activation, salivary gland; parameters: species or system rat; settings: 1 mg/kg of 82
Method: as §5

anesthetized rats = assay: Salivation on iontophoretic transdermal delivery of agonist and antagonist from one patch; format: in vivo, rat; settings: patch with 1 mg of 82 plus 0.01mg antagonist
Method: Experimental compounds and drug substances were delivered transdermally in rats using iontophoresis as follows. The fur was shaved from the backs of Long Evans Hooded rats weighing 225 to 325 grams, using electric clippers. Experimental compounds and drug substances were formulated at suitable concentrations an aqueous mixture of the following composition:
The polyvinyl alcohol/water was heated to 95 degC. until it became clear, then the other constituents were added and mixed well. The mixture was introduced into suitable molds containing a disc-shaped cavity 2.2 cm diameter and 2.2 mm deep. Molds may be fabricated using two glass sheets separated by a silicone rubber sheet with suitable sized cavities and filling ports cut-outs. The molds were subject to 3 freeze-thaw cycles at −80degC. and 20degC. until a firm cryogel was obtained. The gels were separated from the molds and trimmed into a circular shape. The gel was placed in a silicone rubber casing with one face in contact with a circular silver foil anodic electrode (22 mm dia/250 microns thick), and the assembly was placed on the shaved skin of the rat such that the other face was in contact with the skin on one side of the back of the rat. The rubber casing formed a seal over and around the gel/electrode assembly. […] This was placed on the other side of the shaved back of the rat, the edges of the gel discs being about 20 mm apart at their nearest point. A DC voltage was applied across the two patches from a constant-current DC power supply and the voltage adjusted to obtain the desired current, such that the skin of the animal completed the electrical circuit.
The devices were placed on shaved backs of anesthetized rats and salivation was measured.
The animals were placed slightly head-down on an inclined, heated ramp. Rectal temperature was monitored using a thermocouple and the temperature of the heating pad was adjusted manually to maintain normal body temperature. Saliva was collected from the mouth by absorption onto pre-weighed slips of filter paper. The filter paper was changed periodically and the amount of saliva was measured by weighing the filter paper slips

rat M3 receptors = target: T4, rat M3 receptors (Rattus norvegicus, UniProt P08483); assay: PI turnover (inositol phosphate production) in M3-CHO cells; format: cell-based; settings: relative to mean Smax for carbachol (100.0)
T4 construct: host or cells: Chinese Hamster Ovary cells (M3-CHO)
T4 sequence (P08483 whole entry): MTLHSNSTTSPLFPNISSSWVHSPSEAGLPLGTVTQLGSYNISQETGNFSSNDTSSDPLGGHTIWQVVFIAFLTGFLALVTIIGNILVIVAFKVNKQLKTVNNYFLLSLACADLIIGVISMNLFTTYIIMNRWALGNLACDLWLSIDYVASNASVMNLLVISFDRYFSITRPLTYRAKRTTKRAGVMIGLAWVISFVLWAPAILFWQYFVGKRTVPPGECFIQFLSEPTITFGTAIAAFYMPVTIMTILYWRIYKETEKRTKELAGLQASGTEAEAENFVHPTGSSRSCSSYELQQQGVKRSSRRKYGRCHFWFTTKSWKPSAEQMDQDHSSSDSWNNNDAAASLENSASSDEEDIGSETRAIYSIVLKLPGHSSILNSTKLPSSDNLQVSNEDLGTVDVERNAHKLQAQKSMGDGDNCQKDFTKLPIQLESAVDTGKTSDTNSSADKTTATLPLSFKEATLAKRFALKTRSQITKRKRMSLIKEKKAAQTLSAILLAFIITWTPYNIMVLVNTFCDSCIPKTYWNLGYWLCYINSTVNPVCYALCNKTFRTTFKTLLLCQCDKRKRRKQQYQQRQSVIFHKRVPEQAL
Method: (§6) The medium was changed to 70 μL/well of inositol-free DMEM containing 2 mM glutamine, 10% FBS and 10 μCi/ml of [3H]-inositol (PE:cat # NET114A250UC), incubated overnight as above, then 100 μL of a solution of the test compound in HBSS containing 10 mM LiCl and 20 mM HEPES, pH 7.4 was added, incubation was continued for 60 min under the above conditions, and the test was stopped by removing the test compound and replacing with 100 μL of 50 mM formic acid in water at 4° C.

rat M1 receptors = target: T5, rat M1 receptors (Rattus norvegicus, UniProt P08482); assay: PI turnover (inositol phosphate production) in M1-CHO cells; format: cell-based; settings: relative to mean Smax for carbachol (100.0)
T5 construct: host or cells: Chinese Hamster Ovary cells (M1-CHO)
T5 sequence (P08482 1-460): T3 sequence (P11229 1-460) with A5V, T254S, P309S, R320K, A337G, I413V
Method: as §6

[7] = percentage of maximal stimulation by carbachol

- huM3/A9L ED50 relative to CCh [1]: + (potency 2-10x CCh)
- extent of metabolism in human liver microsomes [2]: nearly completely metabolized
- potency and efficacy at M1 muscarinic receptors [3]: reasonable potency and efficacy
- huM1/A9L ED50 relative to CCh [3]: + (potency 2-10x CCh)
- PAMPA (? × 106) (PAMPA test): 12.75 ? × 106
- rate of crossing the lipid layer in the PAMPA test (PAMPA test): slightly better
- extent of metabolism in rat liver microsomes [4]: nearly completely metabolized
Compound: Cc1noc(C2=CCCN(C)C2)n1 [Compound 126, 3-methyl-5-(1-methyl-1,2,5,6-tetrahydropyridin-3-yl)-1,2,4-oxadiazole, reference compound]
- extent of metabolism in FMO Supersomes (human FMO1 Supersomes): almost completely metabolized; also recorded: nearly completely metabolized
- selectivity between M1 and M3 receptors [3]: some selectivity for M1 versus M3 receptors

Compound: C[N+]1(C)[C@@H]2C[C@@H](OC(=O)[C@H](CO)c3ccccc3)C[C@H]1[C@@H]1O[C@@H]12 [NMS, N-methylscopolamine]
- inhibition of increase in inositol phosphate in the hippocampus caused by 82 [5]: does not inhibit
- decrease in salivation caused by 82 (anesthetized normal rats; 0.3 mg/kg of 82): dose-dependent decrease in salivation
- reduction in salivation caused by MCD-386 (anesthetized normal rats; 1 mg/kg dose of MCD-386): dose-dependent reduction
- block of increase in salivary gland inositol phosphate caused by 82 ([6]; NMS 0.003 mg/kg): some breakthrough activation
- block of increase in salivary gland inositol phosphate caused by 82 ([6]; NMS 0.03 mg/kg to 0.01 mg/kg): nearly as effective as 0.1 mg/kg
- block of increase in salivary gland inositol phosphate caused by 82 ([6]; antagonist 0.1 mg/kg NMS): completely block
- reduction of salivation caused by transdermal iontophoretic delivery of 82 (anesthetized rats): greatly reduced

Compound: [2H]C([2H])([2H])Cc1noc(C2CN=CNC2)n1 (stereo not drawn) [Compound 78, 3-(2,2,2-d3-Ethyl)-5-(1,4,5,6-tetrahydropyrimidin-5-yl)-1,2,4-oxadiazole hydrochloride]
- M3/CHO PI turnover Relative Mean Smax (rat M3 receptors): 28.8
- M1/CHO PI turnover Relative Mean Smax (rat M1 receptors): 48.9

- PAMPA (? × 106): 7.95 ? × 106
Compound: Clc1cccc(Cl)c1N=C1NCCN1 [Clonidine, reference compound]

Compound: Cc1noc(C2CN3CCC2CC3)n1 (stereo not drawn) [Compound 127, 3-methyl-5-(quinuclidin-3-yl)-1,2,4-oxadiazole, reference compound]
- extent of metabolism in FMO Supersomes (human FMO1 Supersomes): almost completely metabolized
- huM3/A9L Smax [1, 7]: 50-100%
- huM3/A9L ED50 relative to CCh [1]: ++ (potency >10x CCh)
- selectivity between M1 and M3 receptors [3]: essentially non-selective
- huM1/A9L Smax [3, 7]: 50-100%
- huM1/A9L ED50 relative to CCh [3]: ++ (potency >10x CCh)
- PAMPA (? × 106) (PAMPA test): 3.02 ? × 106
- rate of crossing the lipid layer in the PAMPA test (PAMPA test): significantly better
